Laboratory results: BindingDB's records for patent US9776990 (Abbvie, 2017)

Target: Bromodomain-containing protein 4 (Homo sapiens, UniProt O60885)

Ki [µM]	SMILES
19.7	Cc1[nH]c(-c2cccc3ccccc23)c2c1C(=O)CCC2 [US9776990, Example 19]
10.4	Cc1[nH]c(-c2ccccc2CN2C(=O)c3ccccc3C2=O)c2c1C(=O)CCC2 [US9776990, Example 26]
22.2	Cc1[nH]c(-c2ccccc2Oc2ccccc2)c2c1C(=O)CC(CC(C)C)C2 (stereo not drawn) [US9776990, Example 68]
